Test results: ChEMBL document CHEMBL3217548, “Biological activity and DNA binding studies of 2-substituted benzimidazo[1,2-a]quinolines bearing different amino side chains” (Medchemcomm, 2013)
The source made the active and inactive calls. No cut-off for these calls is given here.

How the values were obtained:
Calf thymus DNA [1] = test: Binding affinity to calf thymus DNA assessed as bathochromic shift at 20 uM by UV/visible spectrophotometry; type: nucleic-acid assay; conditions: Bos taurus
Calf thymus DNA [2] = test: Binding affinity to calf thymus DNA assessed as hypochromic shift at 20 uM by UV/visible spectrophotometry; type: nucleic-acid assay; conditions: Bos taurus
[3] = Binding affinity to DNA (unknown origin) at 1 to 10 uM after 15 mins by DNA footprinting assay
Homo sapiens = species on record: Homo sapiens; test: Inhibition of human DNA topoisomerase 2 assessed as inhibition of DNA cleavage
[4] = biological target: T1, DNA topoisomerase 1 (Homo sapiens) (UniProt P11387); test: Inhibition of human DNA topoisomerase 1 assessed as inhibition of DNA cleavage
T1 sequence (whole entry): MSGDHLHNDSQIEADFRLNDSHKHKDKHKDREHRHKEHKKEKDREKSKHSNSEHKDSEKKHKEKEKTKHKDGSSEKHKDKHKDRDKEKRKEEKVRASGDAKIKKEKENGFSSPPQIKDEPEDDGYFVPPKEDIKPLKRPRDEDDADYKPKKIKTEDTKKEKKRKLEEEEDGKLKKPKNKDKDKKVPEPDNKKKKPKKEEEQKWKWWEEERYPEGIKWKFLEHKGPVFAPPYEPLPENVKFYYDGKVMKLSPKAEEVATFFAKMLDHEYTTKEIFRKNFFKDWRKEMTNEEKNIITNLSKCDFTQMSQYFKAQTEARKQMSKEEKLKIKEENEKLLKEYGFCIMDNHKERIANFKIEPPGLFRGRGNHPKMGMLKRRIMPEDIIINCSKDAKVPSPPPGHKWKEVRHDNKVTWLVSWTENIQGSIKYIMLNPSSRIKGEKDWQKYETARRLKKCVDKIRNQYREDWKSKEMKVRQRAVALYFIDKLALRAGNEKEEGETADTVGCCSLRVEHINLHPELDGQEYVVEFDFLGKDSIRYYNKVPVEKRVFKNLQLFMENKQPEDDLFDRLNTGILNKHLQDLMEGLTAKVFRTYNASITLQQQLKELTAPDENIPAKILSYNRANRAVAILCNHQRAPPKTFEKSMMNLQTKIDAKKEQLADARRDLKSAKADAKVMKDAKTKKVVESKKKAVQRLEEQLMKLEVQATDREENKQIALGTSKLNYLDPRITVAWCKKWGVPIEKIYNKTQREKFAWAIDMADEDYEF

Escherichia coli [5] = test: Binding affinity to Escherichia coli pUC19 plasmid assessed as nicked DNA at 0.1 to 5 uM by ethidium bromide staining-based agarose gel electrophoresis
Escherichia coli [6] = test: Binding affinity to Escherichia coli pUC19 plasmid assessed as induction of topoisomerase1-mediated DNA relaxation at 1 uM incubated for 45 mins prior to topoisomerase1 addition by agarose gel electrophoresis
Calf thymus DNA [7] = test: Binding affinity to calf thymus DNA assessed as DNA intercalation by circular dichroism analysis; type: nucleic-acid assay; conditions: Bos taurus
Calf thymus DNA [8] = test: Binding affinity to calf thymus DNA assessed as change in melting temperature at 0.5 drug/DNA ratio by spectrophotometry; type: nucleic-acid assay; conditions: Bos taurus
[9] = Drug uptake in human H460 cell nucleoli at 10 uM after 2 hrs by fluorescence microscopy; type: ADME, cell-based; conditions: h460, 2 h
[10] = Drug uptake in human H460 cell endoplasmic reticulum at 10 uM after 2 hrs by fluorescence microscopy; type: ADME, cell-based; conditions: h460, 2 h
HCT-116 [11] = test: Cell cycle arrest in human HCT116 cells assessed as accumulation at subG1 phase at 5 uM after 24 hrs by propidium iodide staining-based FACS analysis; type: functional
HCT-116 [12] = test: Cell cycle arrest in human HCT116 cells assessed as accumulation at subG1 phase after 24 hrs by propidium iodide staining-based FACS analysis; type: functional
HCT-116 [13] = test: Cell cycle arrest in human HCT116 cells assessed as accumulation at G2/M phase at 1 uM after 48 hrs by propidium iodide staining-based FACS analysis (reference value: 28 +/- 3 %); type: functional
HCT-116 [14] = test: Cell cycle arrest in human HCT116 cells assessed as accumulation at G2/M phase at 0.1 uM after 48 hrs by propidium iodide staining-based FACS analysis (reference value: 28 +/- 3 %); type: functional
HCT-116 [15] = test: Cell cycle arrest in human HCT116 cells assessed as accumulation at G2/M phase at 1 uM after 24 hrs by propidium iodide staining-based FACS analysis (reference value: 29 +/- 8 %); type: functional
HCT-116 [16] = test: Cell cycle arrest in human HCT116 cells assessed as accumulation at G2/M phase at 0.1 uM after 24 hrs by propidium iodide staining-based FACS analysis (reference value: 29 +/- 8 %); type: functional
HCT-116 [17] = test: Cell cycle arrest in human HCT116 cells assessed as accumulation at S phase at 1 uM after 48 hrs by propidium iodide staining-based FACS analysis (reference value: 12+/- 5 %); type: functional
HCT-116 [18] = test: Cell cycle arrest in human HCT116 cells assessed as accumulation at S phase at 0.1 uM after 48 hrs by propidium iodide staining-based FACS analysis (reference value: 12+/- 5 %); type: functional
HCT-116 [19] = test: Cell cycle arrest in human HCT116 cells assessed as accumulation at S phase at 1 uM after 24 hrs by propidium iodide staining-based FACS analysis (reference value: 48 +/- 6 %); type: functional
HCT-116 [20] = test: Cell cycle arrest in human HCT116 cells assessed as accumulation at S phase at 0.1 uM after 24 hrs by propidium iodide staining-based FACS analysis (reference value: 48 +/- 6 %); type: functional
HCT-116 [21] = test: Cell cycle arrest in human HCT116 cells assessed as accumulation at G1 phase at 1 uM after 48 hrs by propidium iodide staining-based FACS analysis (reference value: 60 +/- 2 %); type: functional
HCT-116 [22] = test: Cell cycle arrest in human HCT116 cells assessed as accumulation at G1 phase at 0.1 uM after 48 hrs by propidium iodide staining-based FACS analysis (reference value: 60 +/- 2 %); type: functional
HCT-116 [23] = test: Cell cycle arrest in human HCT116 cells assessed as accumulation at G1 phase at 1 uM after 24 hrs by propidium iodide staining-based FACS analysis (reference value: 23 +/- 2 %); type: functional
HCT-116 [24] = test: Cell cycle arrest in human HCT116 cells assessed as accumulation at G1 phase at 0.1 uM after 24 hrs by propidium iodide staining-based FACS analysis (reference value: 23 +/- 2 %); type: functional
HCT-116 [25] = test: Cell cycle arrest in human HCT116 cells assessed as accumulation at subG1 phase at 1 uM after 48 hrs by propidium iodide staining-based FACS analysis (reference value: 5 +/- 2 %); type: functional
HCT-116 [26] = test: Cell cycle arrest in human HCT116 cells assessed as accumulation at subG1 phase at 0.1 uM after 48 hrs by propidium iodide staining-based FACS analysis (reference value: 5 +/- 2 %); type: functional
HCT-116 [27] = test: Cell cycle arrest in human HCT116 cells assessed as accumulation at subG1 phase at 1 uM after 24 hrs by propidium iodide staining-based FACS analysis (reference value: 2 +/- 0.1 %); type: functional
HCT-116 [28] = test: Cell cycle arrest in human HCT116 cells assessed as accumulation at subG1 phase at 0.1 uM after 24 hrs by propidium iodide staining-based FACS analysis (reference value: 2 +/- 0.1 %); type: functional
MCF7 = test: Cytotoxicity against human MCF7 cells after 72 hrs by MTT assay; type: functional, cell-based; conditions: MCF7, 72 h
[29] = Cytotoxicity against human H460 cells after 72 hrs by MTT assay; type: functional, cell-based; conditions: NCI-H460, 72 h
HCT-116 [30] = test: Cytotoxicity against human HCT116 cells after 72 hrs by MTT assay; type: functional, cell-based; conditions: HCT-116, 72 h
DNA = test: Induction of DNA damage in plasmid DNA in E. coli S30 cell-free system assessed as inhibition of EGFP translation at 50 uM after 1 hr by fluorescence assay

Compound: N#Cc1cc2ccc(N3CCNCC3)cc2n2c1nc1ccccc12
- Activity (Calf thymus DNA [1]): Active
- Activity (Calf thymus DNA [2]): Active
- Activity [3]: Active
- Activity (Homo sapiens): inactive
- Activity [4]: inactive
- Activity (Escherichia coli [5]): Active
- Activity (Escherichia coli [6]): Active
- Activity (Calf thymus DNA [7]): Dose-dependent effect
- ΔTm (Calf thymus DNA [8]): 17.3 °C
- Drug uptake [9]: Active
- Drug uptake [10]: Active
- Activity (HCT-116 [11]): 40%
- Activity (HCT-116 [12]): Dose-dependent effect
- Activity (HCT-116 [13]): 69%
- Activity (HCT-116 [14]): 30%
- Activity (HCT-116 [15]): 85%
- Activity (HCT-116 [16]): 80%
- Activity (HCT-116 [17]): 1%
- Activity (HCT-116 [18]): 11%
- Activity (HCT-116 [19]): 0%
- Activity (HCT-116 [20]): 1%
- Activity (HCT-116 [21]): 30%
- Activity (HCT-116 [22]): 59%
- Activity (HCT-116 [23]): 15%
- Activity (HCT-116 [24]): 19%
- Activity (HCT-116 [25]): 12%
- Activity (HCT-116 [26]): 11%
- Activity (HCT-116 [27]): 12%
- Activity (HCT-116 [28]): 2%
- IC50 (MCF7): 200 nM
- IC50 [29]: 200 nM
- IC50 (HCT-116 [30]): 60 nM
- inhibition at 50 µM (DNA): 38%
